US8765735B2, “Isoxazolines as inhibitors of fatty acid amide hydrolase” (Infinity Pharmaceuticals, Inc., priority 2009, dated 2014)

biological target: T1, human FAAH (Homo sapiens, UniProt O00519); experiment: Inhibition of human FAAH (fluorescence assay, AMC arachidonoyl amide substrate); type: biochemical; conditions: solubilized human FAAH from transfected COS-7 cells; 30 min preincubation; 20 μM AMC-arachidonoyl amide; 4 h at room temperature
T1 construct: host or cells: COS-7 cells, transient transfection; 13,000 g membrane fraction solubilised in 1% Triton X-100
T1 sequence (O00519 1-579): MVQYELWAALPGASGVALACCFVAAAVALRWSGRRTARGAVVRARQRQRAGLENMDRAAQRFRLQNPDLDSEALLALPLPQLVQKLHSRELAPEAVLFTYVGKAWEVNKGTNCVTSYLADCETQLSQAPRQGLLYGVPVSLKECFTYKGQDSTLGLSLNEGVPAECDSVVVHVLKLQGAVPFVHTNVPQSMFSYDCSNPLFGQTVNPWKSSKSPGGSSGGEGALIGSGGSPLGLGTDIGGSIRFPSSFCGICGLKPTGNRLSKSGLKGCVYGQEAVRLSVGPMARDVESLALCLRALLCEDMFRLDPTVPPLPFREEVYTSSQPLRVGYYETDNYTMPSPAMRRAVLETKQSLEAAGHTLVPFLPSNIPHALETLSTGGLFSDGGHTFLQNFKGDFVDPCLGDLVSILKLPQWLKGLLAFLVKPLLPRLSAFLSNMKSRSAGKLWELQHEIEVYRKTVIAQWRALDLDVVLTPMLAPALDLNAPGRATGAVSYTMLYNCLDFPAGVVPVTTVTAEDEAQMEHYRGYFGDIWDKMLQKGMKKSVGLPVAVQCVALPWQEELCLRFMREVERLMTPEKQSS
Description: Human FAAH Preparation: COS-7 cells were split the day before, 1:5 into 150 mm×25 mm cell culture dishes (Corning Inc., Cat. No. 430599). Transient transfection took place at 30-40% confluency according to FuGENE 6 Transfection Reagent (Roche, Cat. No. 11814 443 001).
Transfection Procedure: The FuGENE transfection 6 reagent (45 uL) was added to 1410 μL of media (DMEM, serum free without pen/strep) in a 15 mL conical tube and incubated at room temp for 5 minutes, followed by the addition of FAAH plasmid DNA (15 μg) (OriGene Cat. No. TC119221, Genbank Accession No. NM_001441.1, 0.67 ug/uL) and a further incubation of 15 minutes at room temperature. The resulting solution was added into one dish of 30-40% confluent COS-7 cells in a drop-wise manner. The COS-7 cell dish was subsequently incubated for 48 hours. The cells are then harvested.
Harvest procedure: Media was aspirated from the dishes and the cells rinsed with 10 mL PBS. The PBS was removed and 3 mL of PBS added to the dish. The dish was scraped to resuspend the cells, and the subsequent cell suspension collected into a 15 mL conical tube. The cells were pelleted by centrifugation at 1200 rpm for 5 minutes in a bench top centrifuge. PBS was removed and the cell pellet snap frozen in liquid nitrogen and stored at −80° C.
COS-7 cells—FAAH purification: • (1) Fractionation: Frozen cell pellets from transient transfections were thawed on ice and resuspended in 12.5 mM Hepes pH 8.0, 100 mM NaCl, 1 mM EDTA (10 mL/0.2 g cell pellet). The pellets were dounce homogenized and then sonicated to produce cell extract. The cell extract was subsequently centrifuged at 1000 g to remove cellular debris. The pellet was discarded and the supernatant centrifuged at 13,000 g for 20 minutes. The pellet contained membrane bound FAAH. The supernatant was discarded and the pellet resolubilized. • (2) Re-solubilization: The fraction of interest, (13,000 g, membrane fraction) was re-suspended in 2.3 mL re-suspension buffer (20 mM Hepes pH 7.8, 10% v/v Glycerol, 1 mM EDTA, 1% Triton X-100) and the sample incubated on ice for 1 hour and then centrifuged to remove any particulate matter. The supernatant containing solubilized human FAAH was aliquoted and snap frozen in liquid nitrogen and stored at 80° C. until use. • (3) Characterization: Protein Concentration determined by Bradford assay. • SDS gel and Western blot to confirm presence of FAAH • FAAH activity assay • Km determination—96-well assay • Linear dependence—96-well assay • Standard compound Ki determination—384-well assay
Human FAAH assay; Experimental Protocol: A 0.1 mg/mL Human FAAH solution was made up in FAAH reaction buffer, and 24 ul pipeted into a 384 well plate. To this was added 1 μL of a 3 fold serially diluted inhibitor from a DMSO stock solution. The FAAH solution and inhibitor were incubated for 30 minutes at room temperature. The FAAH reaction was initiated by the addition of 25 μL of 40 μM AMC Arachidonoyl Amide in FAAH reaction buffer, yielding a final reaction human FAAH preparation concentration of 0.05 mg/ml and AMC-Arachidonoyl substrate concentration of 20 μM, reaction volume 50 μL. The reaction was allowed to proceed for 4 hours at room temperature. The reaction was stopped by the addition of 25 μL 12 μM a-ketoheterocycle (Cayman Chemicals, catalogue #10435). The microtiter plate was read in the envision plate reader.
The raw fluorescence was plotted on the y axis and the inhibitor concentration on the x axis to give a dose response inhibition curve. The data was fitted to a single site competitive inhibition equation, fixing the Km for the human enzyme to 12 μM and 9 μM respectively.

Structure (SMILES)	Ki
BrC1=NOC2(CCCCC2)C1 [III-1]	≤ 100 nM
CC(C)(C)[C@H]1CC[C@]2(CC1)CC(Br)=NO2 [III-2a]	100 to 1000 nM
CC(C)(C)[C@H]1CC[C@@]2(CC1)CC(Br)=NO2 [III-2b]	100 to 1000 nM
BrC1=NO[C@]2(CC[C@H](c3ccccc3)CC2)C1 [III-3a]	≤ 100 nM
BrC1=NO[C@]2(CC[C@@H](c3ccccc3)CC2)C1 [III-3b]	≤ 100 nM
BrC1=NOC2(CCC3(CC2)OCCO3)C1 [III-4]	≥ 1000 nM
BrC1=NO[C@]2(CC[C@H](COc3ccccc3)CC2)C1 [III-8a]	≤ 100 nM
BrC1=NO[C@]2(CC[C@@H](COc3ccccc3)CC2)C1 [III-8b]	≤ 100 nM
CC(C)(C)OC(=O)N1CCC2(CC1)CC(Br)=NO2 [III-9]	≤ 100 nM
CC(C)(C)OC(=O)N1CCC[C@@]2(CC(Br)=NO2)C1 [III-10a]	≥ 1000 nM
CC(C)(C)OC(=O)N1CCC[C@]2(CC(Br)=NO2)C1 [III-10b]	≥ 1000 nM
CC(C)(C)OC(=O)N1CC[C@@]2(CC(Br)=NO2)C1 [III-11a]	100 to 1000 nM
CC(C)(C)OC(=O)N1CC[C@]2(CC(Br)=NO2)C1 [III-11b]	100 to 1000 nM
CC(C)(C)OC(=O)N1CCC[C@@]2(CC1)CC(Br)=NO2 [III-12a]	≤ 100 nM
CC(C)(C)OC(=O)N1CCC[C@]2(CC1)CC(Br)=NO2 [III-12b]	≤ 100 nM
CC(C)(C)OC(=O)N1C2CCC1CC1(CC(Br)=NO1)C2 (stereo not shown) [III-13a]	≥ 1000 nM
BrC1=NOC2(CCNCC2)C1 [III-14]	≥ 1000 nM
CC(=O)N1CCC2(CC1)CC(Br)=NO2 [III-15]	≥ 1000 nM
O=C(c1ccccc1)N1CCC2(CC1)CC(Br)=NO2 [III-16]	≤ 100 nM
O=S(=O)(c1ccccc1)N1CCC2(CC1)CC(Br)=NO2 [III-17]	100 to 1000 nM
O=C(OCc1ccccc1)N1CCC2(CC1)CC(Br)=NO2 [III-18]	≤ 100 nM
BrC1=NOC2(CCN(Cc3ccccc3)CC2)C1 [III-19]	≤ 100 nM
Clc1ccc(CN2CCC3(CC2)CC(Br)=NO3)cc1 [III-20]	≤ 100 nM

Structure (SMILES)	Ki
COc1ccc(CN2CCC3(CC2)CC(Br)=NO3)cc1 [III-21]	≤ 100 nM
BrC1=NOC2(CCN(Cc3ccccn3)CC2)C1 [III-22]	100 to 1000 nM
BrC1=NOC2(CCN(Cc3cccnc3)CC2)C1 [III-23]	100 to 1000 nM
Cc1ccc(CN2CCC3(CC2)CC(Br)=NO3)cc1 [III-24]	≤ 100 nM
Clc1ccc(CN2CCC3(CC2)CC(Br)=NO3)cc1Cl [III-25]	≤ 100 nM
FC(F)(F)c1ccc(CN2CCC3(CC2)CC(Br)=NO3)cc1 [III-26]	≤ 100 nM
Clc1cccc(CN2CCC3(CC2)CC(Br)=NO3)c1 [III-27]	≤ 100 nM
BrC1=NOC2(CCN(CCCc3ccccc3)CC2)C1 [III-28]	≤ 100 nM
BrC1=NOC2(CCN(CCc3ccccc3)CC2)C1 [III-29]	≤ 100 nM
BrC1=NOC2(CCN(c3ccccc3)CC2)C1 [III-30]	100 to 1000 nM
BrC1=NOC2(CCN(c3ccc(Br)cc3)CC2)C1 [III-31]	100 to 1000 nM
BrC1=NOC2(CCN(CC3CCCCC3)CC2)C1 [III-32]	≤ 100 nM
CC(C)(C)CN1CCC2(CC1)CC(Br)=NO2 [III-33]	100 to 1000 nM
O=C(CCc1ccccc1)N1CCC2(CC1)CC(Br)=NO2 [III-34]	≤ 100 nM
COC(=O)N1CCC2(CC1)CC(Br)=NO2 [III-35]	100 to 1000 nM
CC(C)COC(=O)N1CCC2(CC1)CC(Br)=NO2 [III-36]	≤ 100 nM
O=C(Oc1ccccc1)N1CCC2(CC1)CC(Br)=NO2 [III-37]	≤ 100 nM
O=C(OCC(Cl)(Cl)Cl)N1CCC2(CC1)CC(Br)=NO2 [III-38]	100 to 1000 nM
COc1ccc(COC(=O)N2CCC3(CC2)CC(Br)=NO3)cc1 [III-39]	≤ 100 nM
O=C(OCc1ccc(Cl)cc1)N1CCC2(CC1)CC(Br)=NO2 [III-40]	≤ 100 nM
BrC1=NOC2CC(OCc3ccccc3)CC12 (stereo not shown) [III-42]	100 to 1000 nM
CC(C)(C)OC(=O)N1C[C@@H]2C(Br)=NO[C@@H]2C1 [III-43a]	100 to 1000 nM
CC(C)(C)OC(=O)N1C[C@@H]2ON=C(Br)[C@@H]2C1 [III-43b]	100 to 1000 nM
